Measured values: patent US20210299039A1, “COMPOSITIONS AND METHODS FOR TREATING OCULAR DISEASE BY CONTACT LENS MEDIATED DRUG DELIVERY” (EyeGate Pharmaceuticals, Inc., priority 2020, published 2021)

Key:
[1] = Formulation 3
Procedure: HEMA-based hydrogels were prepared as described in Example 4 using Formulation 3.

[2] = Drug release into PBS and extraction from HEMA-based hydrogel discs; assay type: physicochemical; details: for effect of MPMA on total amount of drug released and extracted: HEMA-based discs with MPMA vs without, FIG. 7; for effect of MPMA on release over time: HEMA-based material with vs without MPMA, FIGS. 10 and 11
Procedure: At 0.5, 1, 2, 4, 6, and 8 hours the PBS was removed and fresh PBS was added.

[3] = Drug loading by soaking hydrogel discs in drug solution (weight gain); assay type: physicochemical; details: 48-hour soak, HEMA-based discs with 15% MPMA vs without; FIG. 5
Procedure: The HEMA-based hydrogels of formulation 5 in Table 1, were made with and without 15% MPMA. Unreacted components were extracted by washing in DI water for at least 3 hours, followed by washing in a 50:50 mixture of reagent alcohol and DI water for at least 3 hours, then washing again in DI water for at least 3 hours. Discs 15 mm in diameter were punched out and dried in a vacuum dessicator for at least 72 hours. The dry discs were weighed to get an initial weight without drug. Discs were then placed in a drug solution for 48 hours on a shaker at 200 rpm. Drug solutions used in this study can be found in Table 2. After 48 hours, the discs were removed from the drug solution, patted with a Kimwipe to remove solution from the surface, and then dried in a vacuum dessicator for at least 48 hours. The dry drug-loaded discs were weighed, and the amount of drug loaded was determined as the drug-loaded disc weight minus the initial weight.

[4] = In vitro drug release into and across sclera tissue (Franz cell); assay type: in vitro ADME, Porcine; details: 4 minutes, 4 hours, 8 hours; HPLC-UV; FIG. 13
Description: An experimental setup (shown in FIG. 12) for determining drug release from a soft contact lens hydrogel disc into and across sclera tissue was created using a glass Franz cell. The Franz cell was filled with PBS. A cell strainer (BD Falcon, […] nylon, 23 mm ID) was fitted onto the Franz cell as a framework to hold the sclera and hydrogel disc together. Porcine sclera tissue (21 mm diameter, 1 mm thick) was placed in the cell strainer, the drug-loaded hydrogel disc was placed onto the sclera tissue, and a glass bottle was placed on top of the disc to firmly hold the assembly together in the cell strainer. At 4 minutes, 4 hours, or 8 hours, the sclera tissue was removed and a sample of the PBS from the Franz cell was taken. The sclera tissue was digested using collagenase, and the amount of dexP in the digested sclera tissue and PBS was determined using HPLC-UV.

[5] = dexP release from silicone-based hydrogel discs into PBS; assay type: physicochemical
Description: Silicone-based hydrogels similar to formulation 2 in Table 1, but with only 1% EGDMA, were made with and without 15% MPMA. Unreacted components were extracted as described in Example 4.

[6] = rabbit, in vivo
Procedure: Following sterilization, lenses were handled aseptically. […] Control (drug-free) lenses were soaked and then stored (at 4° C.) in sterile isotonic saline until use. Controls were used only for retention and ocular health assessments.
A total of 11 New Zealand White rabbits were used in this study: 2 animals were in the control group and 9 animals in the treatment group. The nictitating membranes of the rabbits were removed and the rabbits allowed to recover for 2 weeks prior to study initiation. For the study, a contact lens was placed on each eye of an animal and a tarsorrhaphy performed by placing a single staple in the corner of the eyelids to aid in retention of the contact lenses. Cage side observations of the animals occurred every 2 hours to monitor lens retention and ocular health. At 2, 4, and 8 hours following lens placement, 3 animals in the treatment group were euthanized, the staple and contact lens from each eye were removed, and ocular health was noted. The following tissues were then isolated: aqueous humor (AH), vitreous humor (VH), retina, choroid, cornea, conjunctiva, and sclera. The aqueous humor was retrieved from each eye using a sterile 30-gauge needle on a 1 mL syringe while the eyes were still intact in the animal. Tissues were transferred to pre-weighed, pre-labeled tubes in a box of dry ice. […]

[7] = Loss of crosslinked-in dexP during extraction washes (HPLC-UV); assay type: physicochemical; details: formulation 4 hydrogels with MPMA compared to without MPMA; FIG. 4
Procedure: Hydrogels were placed in deionized (DI) water for 35 minutes at 37° C./200 rpm, followed by 3 times in isopropyl alcohol for 25 minutes each at 37° C./200 rpm, then 2 additional times in DI water for 25 minutes each.

| Structure (SMILES) | effect of MPMA on release over time [2] | effect of MPMA on total amount of drug released and extracted [2] | effect of MPMA on amount of drug loaded [3] | further results |
| --- | --- | --- | --- | --- |
| C[C@@H]1C[C@H]2[C@@H]3CCC4=CC(=O)C=C[C@]4(C)[C@@]3(F)[C@@H](O)C[C@]2(C)[C@@]1(O)C(=O)COP(=O)([O-])[O-].[Na+].[Na+] [disodium dexP] | – | – | – | loading of dexP, disodium form compared to free acid form ([1]; 7 days soak in 40 mg/ml solution, FIG. 16): decreased loading and release; release of dexP, disodium form compared to free acid form ([1]; PBS up to 8 hours, FIG. 17): decreased loading and release |
| C[C@]12C=CC(=O)C=C1CC[C@@H]1[C@@H]2[C@@H](O)C[C@@]2(C)[C@H]1CC[C@]2(O)C(=O)COP(=O)(O)O [predP, Prednisolone phosphate] | – | significantly greater | significantly increased the amount of drug loaded | – |
| C[C@@H]1C[C@H]2[C@@H]3CCC4=CC(=O)C=C[C@]4(C)[C@@]3(F)[C@@H](O)C[C@]2(C)[C@@]1(O)C(=O)COP(=O)(O)O [dexP, dexamethasone phosphate] | – | significantly greater | significantly increased the amount of drug loaded | amount of dexP in sclera tissue and PBS reservoir [4]: increasing amount of dexP in the sclera tissue and PBS over time; total amount of dexP released ([5]; silicone-based discs with 15% MPMA vs without, initial soak, release in PBS, FIG. 6A): significantly greater; amount of dexP released after re-loading ([5]; silicone-based discs with MPMA vs without, re-soaked overnight, FIG. 6B): greater amount of dexP release; detection in ocular tissues [6]: detected in the tissues of treated animals at each timepoint; drug reaching the back of the eye [6]: drug concentrations observed in the VH, retina, and choroid; amount of incorporated dexP removed during water and alcohol washes [7]: very little of the incorporated dexP was removed |
| NC[C@H]1O[C@H](O[C@H]2[C@H](O)[C@@H](O[C@H]3O[C@H](CO)[C@@H](O)[C@H](N)[C@H]3O)[C@H](N)C[C@@H]2N)[C@H](N)C[C@@H]1O [Tobramycin] | significantly reduced | significantly decreased the amount of drug released and extracted | did not affect loading | – |
| Cc1ncc([N+](=O)[O-])n1CCO [Metronidazole] | very little effect | did not affect the amount released and extracted | did not affect loading | total amount of drug released and extracted compared between drugs ([2]; 10 mg/ml soaking solution for metronidazole vs 40 mg/ml for the other drugs): lower than for dexP and predP |
